Reference: patent US20210308103A1, “TASK-1 INHIBITORS FOR TREATMENT OF ATRIAL ARRHYTHMIAS” (Universität Heidelberg, priority 2018, published 2021)
Read-outs that look alike come from different tables or passages of the source.

Key:
[1] = oral administration of enteric-coated doxapram; cited from earlier work
porcine TASK-1 = porcine TASK-1 (Sus scrofa, UniProt A0A286ZMZ4); experiment: TASK-1 current inhibition, voltage clamp in Xenopus laevis oocytes (porcine channel); type: cell-based; conditions: FIG. 1A
Sequence of porcine TASK-1 (A0A286ZMZ4 1-401): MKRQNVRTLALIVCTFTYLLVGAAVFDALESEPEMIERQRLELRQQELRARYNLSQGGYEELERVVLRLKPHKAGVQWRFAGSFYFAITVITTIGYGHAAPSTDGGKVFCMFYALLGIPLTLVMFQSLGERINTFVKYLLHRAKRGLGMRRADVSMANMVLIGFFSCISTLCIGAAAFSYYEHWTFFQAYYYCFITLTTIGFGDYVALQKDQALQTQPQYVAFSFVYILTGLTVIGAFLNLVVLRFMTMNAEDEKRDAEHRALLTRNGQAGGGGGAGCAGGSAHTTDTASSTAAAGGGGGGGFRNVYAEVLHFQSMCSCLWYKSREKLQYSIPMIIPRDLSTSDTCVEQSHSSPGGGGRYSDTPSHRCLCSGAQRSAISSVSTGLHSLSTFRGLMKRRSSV
From the text: FIG. 1: Inhibitory effects of doxapram and ketodoxapram on TASK-1 K-ion channels, recorded by voltage-clamp measurements in Xenopus laevis oocytes. A) Concentration-effect curve for doxapram on porcine TASK-1; B) Concentration-effect curve for doxapram on human TASK-1; C) Concentration-effect curve for ketodoxapram on human TASK-1; […] E) Inhibition of TASK-1 by doxapram, ketodoxapnram, and mixtures thereof. Concentration-response curves for ketodoxapram and doxapram. TASK-1 current inhibition was recorded by voltage clamp measurements in Xenopus laevis oocytes according to standard protocols.

pigs = experiment: Adverse effects observed in pigs on overdosing; type: in vivo, pig; conditions: pigs 40-60 kg body weight
Method: Adverse effects observed in pigs. […] These effects were not observed when an overdose of ketodoxapram was administered.

[2] = Plasma trough concentrations in pigs during long-term administration; type: in vivo, pig; conditions: repeated intravenous doses of doxapram over 18 days, FIG. 9
Method: FIG. 9: Plasma trough concentrations of doxapram and its metabolite ketodoxapram in pigs during repetitive intravenous administration of doxapram over 18 days.
FIG. 10: Plasma concentrations of ketodoxapram in pigs during long-term administration of ketodoxapram.
Pigs were administered repeated doses of doxapram over a period of several days.

Kv1.5 = target: T1, Kv1.5 (Homo sapiens, UniProt P22460); experiment: Ion channel current inhibition in Xenopus laevis oocytes, Kv1.5; type: cell-based; conditions: FIG. 1D
T1 construct: expressed in transfected cells; host or cells: Xenopus laevis oocytes
T1 sequence (P22460 whole entry): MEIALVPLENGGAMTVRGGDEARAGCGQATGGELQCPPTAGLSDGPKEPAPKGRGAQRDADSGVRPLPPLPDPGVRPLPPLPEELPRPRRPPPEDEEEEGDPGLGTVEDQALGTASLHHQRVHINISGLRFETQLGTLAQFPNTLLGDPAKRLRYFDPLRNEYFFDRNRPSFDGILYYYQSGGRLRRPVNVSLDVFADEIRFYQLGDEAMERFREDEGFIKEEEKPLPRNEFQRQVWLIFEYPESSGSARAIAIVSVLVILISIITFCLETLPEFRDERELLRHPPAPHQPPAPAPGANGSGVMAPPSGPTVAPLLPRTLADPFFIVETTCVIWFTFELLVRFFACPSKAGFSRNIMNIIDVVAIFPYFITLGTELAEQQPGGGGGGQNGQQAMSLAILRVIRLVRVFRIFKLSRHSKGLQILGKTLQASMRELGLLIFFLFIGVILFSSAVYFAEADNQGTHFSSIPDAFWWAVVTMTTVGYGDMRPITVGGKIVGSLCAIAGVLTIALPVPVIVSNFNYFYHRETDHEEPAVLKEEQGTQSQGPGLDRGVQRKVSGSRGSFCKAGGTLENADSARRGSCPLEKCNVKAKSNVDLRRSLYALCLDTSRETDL
From the text: (§1) FIG. 1: Inhibitory effects of doxapram and ketodoxapram on TASK-1 K-ion channels, recorded by voltage-clamp measurements in Xenopus laevis oocytes. A) Concentration-effect curve for doxapram on porcine TASK-1; B) Concentration-effect curve for doxapram on human TASK-1; C) Concentration-effect curve for ketodoxapram on human TASK-1; […] E) Inhibition of TASK-1 by doxapram, ketodoxapnram, and mixtures thereof. The ion channels TASK-1 ([…].1), Kv4.3, Kv1.5, Kv2.1, Kir3.1/4, Kv1.4 are predominantly expressed in the atrial myocardium. The ion channel TASK-3 ([…].1) is not expressed in the human myocardium but structurally related to TASK-1 (Schmidt C et al. (2015), Circulation 132(2): 82). Ion channel current inhibition was measured in Xenopus laevis oocytes (FIG. 1 D)).

TASK-1 [3] = target: T2, TASK-1 (Homo sapiens, UniProt O14649); experiment: TASK-1 current inhibition, voltage clamp in Xenopus laevis oocytes (human channel); type: cell-based; set-up: expressed in transfected cells; host or cells: Xenopus laevis oocytes; conditions: for Competition between ketodoxapram and doxapram at TASK-1: both compounds present, FIG. 1E; for IC50: voltage clamp, FIG. 1B/1C
T2 sequence (O14649 whole entry): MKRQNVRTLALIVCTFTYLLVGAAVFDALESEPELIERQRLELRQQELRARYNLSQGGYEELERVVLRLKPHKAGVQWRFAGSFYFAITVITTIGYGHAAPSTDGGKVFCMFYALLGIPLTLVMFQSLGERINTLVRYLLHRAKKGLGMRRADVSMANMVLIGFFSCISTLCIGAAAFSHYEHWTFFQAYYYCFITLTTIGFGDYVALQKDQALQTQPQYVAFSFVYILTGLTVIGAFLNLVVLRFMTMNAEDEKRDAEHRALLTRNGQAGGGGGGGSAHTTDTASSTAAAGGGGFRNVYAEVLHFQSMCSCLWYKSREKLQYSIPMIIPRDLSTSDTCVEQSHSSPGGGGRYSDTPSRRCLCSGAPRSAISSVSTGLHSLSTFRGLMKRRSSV
From the text: as §1, with “thereof. Concentration-response curves for ketodoxapram and doxapram. TASK-1 current inhibition was recorded by voltage clamp measurements in Xenopus laevis oocytes according to standard protocols. […]” for “thereof.”, “D)). […] To test for competition between ketodoxapram and doxapram, concentration-response curves were determined by measuring TASK-1 current inhibition recorded by voltage clamp measurements in Xenopus laevis oocytes.” for “D)).”

in vivo = conditions: pig
From the text: FIG. 4: Quantification of doxapram and ketodoxapram in porcine tissue samples. A) doxapram and ketodoxapram were quantified in brain tissue samples (CNS) and plasma samples of two pigs; B) Concentrations of doxapram and ketodoxapram in brain tissues of pigs treated with doxapram, which was metabolized to ketodoxapram.
FIG. 6: Correlation between plasma concentration and brain concentration of doxapram and its metabolite ketodoxapram in pigs after intravenous administration of doxapram; pig numbers and their group status are indicated (SR: sinus rhythm; AF: atrial fibrillation).
FIG. 7: Correlation between plasma concentration and brain concentration of ketodoxapram in pigs after intravenous administration of ketodoxapram; pig numbers and their group status are indicated (AF: atrial fibrillation).
FIG. 8: Short-term distribution of doxapram and its metabolite ketodoxapram in pigs 30 min after administration of doxapram; pig numbers and their group status are indicated (SR: sinus rhythm).
Quantification of ketodoxapram and doxapram in porcine tissues. In two pigs, doxapram and ketodoxapram were administered and quantified in brain tissue samples (CNS) and plasma samples (FIG. 4A).
(§2) Analysis of doxapram and ketodoxapram in tissues. Mass spectrometry, in particular liquid chromatography tandem-mass spectrometry (LC-MS/MS) with deuterated internal standard, was used to quantify the concentrations of doxapram and ketodoxapram in tissue samples and plasma.
Pigs with sinus rhythm or atrial fibrillation were treated with intravenous doxapram and plasma and brain samples were taken essentially simultaneously.
In two pigs, doxapram and ketodoxapram concentrations were determined in brain and plasma 30 min after intravenous administration.

[4] = test system: pigs with persistent atrial fibrillation; experiment: Cardioversion of pacing-induced persistent atrial fibrillation in pigs; type: in vivo, pig
Method: Doxapram and ketodoxapram were successfully applied for cardioversion in pigs. To induce atrial fibrillation in pigs, at first, pacemakers were implanted. Atrial fibrillation was induced by atrial rapid pacing. […] On average, pharmacological cardioversion to sinus rhythm was successful 3 minutes after injection of doxapram or ketodoxapram.

[5] = test system: atrial fibrillation (AF) in humans; experiment: Cardioversion of atrial fibrillation in humans; type: in vivo, human; conditions: injection via peripheral venous catheter, dose adapted to body weight
Method: For cardioversion of atrial fibrillation (AF) in humans, doxapram can be injected via a peripheral venous catheter. The dose will be adapted to the body weight of the patient. Cardioversion is achieved within a few minutes (<30 minutes). The ECG of the patient is continuously monitored to detect the presence of atrial fibrillation (AF) or successful cardioversion. In case of an unsuccessful cardioversion, a second dose can be applied. If AF is present after applying the second dose, a conventional electrical cardioversion can be performed. To prevent AF episodes, patients can receive repeated a maintenance doses adapted to the body weight for oral or intravenous application.

[6] = Plasma pharmacokinetics in pigs after intravenous doxapram; type: in vivo, pig; conditions: for Tmax / AUC(0-inf) / Cmax / AUC / half-life: 1.8 mg/kg body weight; for Tmax / AUCextra / AUC(0-inf) / Cmax / AUC / half-life: intravenous bolus of doxapram; for AUC(0-inf) / Cmax / AUC / half-life: pig, plasma, iv; for AUC: read-out: AUC0-n
From the text: FIG. 3: Pharmacokinetics of doxapram and ketodoxapram in pigs after intravenous administration. Concentration of doxapram and ketodoxapram, respectively, as measured in plasma samples taken at the indicated time points.
Pharmacokinetics of doxapram and ketodoxapram.
as §2
Doxapram was administered as an intravenous bolus to pigs and plasma concentration was determined over time.

[7] = Pharmacokinetics in a horse after three intravenous doses of doxapram; type: in vivo; conditions: FIG. 11
Method: FIG. 11: Pharmacokinetics of doxapram and its metabolite ketodoxapram in a horse after three intravenous administrations of doxapram.
Three intravenous doses of doxapram were administered to a horse.

TASK-1 [8] = target: T2, TASK-1; experiment: TASK-1 current inhibition, patch-clamp in human atrial cardiomyocytes; type: cell-based; set-up: human atrial cardiomyocytes isolated from heart auricles of patients with sinus rhythm; endogenous in cells; host or cells: human atrial cardiomyocytes from heart auricles of patients with sinus rhythm; conditions: cardiomyocytes from heart auricles of patients with sinus rhythm, FIG. 2
From the text: FIG. 2: Effects of ketodoxapram and doxapram in human atrial cardiomyocytes recorded by voltage-clamp measurements.

[9] = Xenopus laevis oocytes, FIG. 1D
[10] = iv, Brain concentration as percentage of plasma concentration
[11] = intravenous 1.8 mg per kg body weight
[12] = average of pigs 98, 99, 100, plasma
[13] = average of pigs 98, 99, 100, plasma, read-out: T1/2 (converted)
[14] = pig 98, plasma, read-out: T1/2 (converted)
[15] = pig 99, plasma, read-out: T1/2 (converted)
[16] = pig 100, plasma, read-out: T1/2 (converted)
[17] = pigs, summary of Table 1, read-out: Elimination half-life
[18] = intravenous 0.5 mg per kg body weight

Compound | Concentrations of doxapram and ketodoxapram in plasma relative to each other [1] | Central nervous adverse effects (pigs) | Course of plasma trough concentrations [2] | Inhibition of ion channel Kv1.5 (Kv1.5) | Most strongly inhibited ion channel among TASK-1, TASK-3, Kv4.3, Kv1.5, Kv2.1, Kir3.1/4, Kv1.4 (TASK-1 [3]; [9]) | Competition between ketodoxapram and doxapram at TASK-1 (TASK-1 [3]) | IC50 (TASK-1 [3]; Xenopus laevis oocytes) [µM] | Plasma concentrations of doxapram and ketodoxapram relative to each other (in vivo) | Tmax ([6]; pig 98, plasma) [h] | AUCextra [6, 12] [%] | AUCextra ([6]; pig 98, plasma) [%] | AUCextra ([6]; pig 99, plasma) [%] | AUCextra ([6]; pig 100, plasma) [%] | AUC(0-inf) [6, 12] [µg·h/mL] | Cmax [6, 12] [µg/mL] | AUC [6, 12] [µg·h/mL] | half-life [6, 13] [h] | AUC(0-inf) ([6]; pig 98, plasma) [µg·h/mL] | Cmax ([6]; pig 98, plasma) [µg/mL] | AUC ([6]; pig 98, plasma) [µg·h/mL] | also measured
CCN1CC(CCN2CCOCC2)C(c2ccccc2)(c2ccccc2)C1=O (stereo not drawn) [doxapram, 1-ethyl-4-(2-morpholin-4-ylethyl)-3,3-diphenyl-pyrrolidin-2-one] | about equal | clear signs of central nervous adverse effects | initial accumulation phase | not inhibited | TASK-1 was the most strongly inhibited ion channel | replaced at the ion channel by ketodoxapram | 0.5 | similar | 0 | 0.80 | 0.61 | 1.53 | 0.26 | 2.95 | 4.09 | 2.93 | 2.12 | 2.2 | 2.31 | 2.18 | IC50 (porcine TASK-1): 1 µM; Accumulation in the brain relative to ketodoxapram (in vivo; iv): 60-500 times; Detection of doxapram after ketodoxapram administration (in vivo; iv): not detected; Kp (in vivo; [10]): 0.0024; Kp at 30 min (in vivo; [10]): 0.001; Cardioversion of persistent atrial fibrillation [4, 11]: sufficient for cardioversion in all tested animals; Time to cardioversion to sinus rhythm after injection, on average [4, 11]: 3 min; Time to cardioversion [5]: < 30 min; Metabolism of doxapram in pigs ([6]; doxapram 1.8 mg/kg body weight, plasma samples, FIG. 3): rapidly metabolized to ketodoxapram; half-life [6, 14]: 1.92 h; AUC(0-inf) ([6]; pig 99, plasma): 3.18 µg·h/mL; Cmax ([6]; pig 99, plasma): 5.06 µg/mL; AUC ([6]; pig 99, plasma): 3.13 µg·h/mL; half-life [6, 15]: 2.65 h; AUC(0-inf) ([6]; pig 100, plasma): 3.48 µg·h/mL; Cmax ([6]; pig 100, plasma): 4.9 µg/mL; AUC ([6]; pig 100, plasma): 3.47 µg·h/mL; half-life [6, 16]: 1.79 h; half-life [6, 17]: 2 to 3 h
CCN1CC(CCN2CCOCC2=O)C(c2ccccc2)(c2ccccc2)C1=O (stereo not drawn) [ketodoxapram, 4-(2-(1-ethyl-5-oxo-4,4-diphenyl-3-pyrrolidinyl)ethyl)-3-morpholinone] | about equal | not observed | initial accumulation phase | not inhibited | TASK-1 was the most strongly inhibited ion channel | stronger affinity to TASK-1 | 1.25 | similar | 1 | 6.99 | 4.65 | 12.36 | 3.96 | 0.308 | 0.0479 | 0.282 | 2.81 | 0.157 | 0.0318 | 0.149 | Effect on TASK-1 compared with doxapram (TASK-1 [3]; [9]): significantly stronger than the effect of doxapram; Concentration in brain tissue compared with doxapram in the same tissue (in vivo): several orders of magnitude lower; Crossing of the blood-brain barrier compared with doxapram (in vivo): much less effectively than doxapram; Brain concentration as percentage of the corresponding doxapram concentration (in vivo; iv): 0.2-1.7%; Initial metabolite accumulation phase [7]: 4 to 5 days; Plasma concentration as percentage of parent compound doxapram [7]: about 10%; Cardioversion of persistent atrial fibrillation [4, 18]: sufficient for cardioversion in all tested animals; Time to cardioversion to sinus rhythm after injection, on average [4, 18]: 3 min; half-life [6, 14]: 2.59 h; AUC(0-inf) ([6]; pig 99, plasma): 0.504 µg·h/mL; Cmax ([6]; pig 99, plasma): 0.0635 µg/mL; AUC ([6]; pig 99, plasma): 0.442 µg·h/mL; half-life [6, 15]: 3.48 h; AUC(0-inf) ([6]; pig 100, plasma): 0.265 µg·h/mL; Cmax ([6]; pig 100, plasma): 0.0483 µg/mL; AUC ([6]; pig 100, plasma): 0.254 µg·h/mL; half-life [6, 16]: 2.36 h; half-life [6, 17]: 2 to 3 h; TASK-1 inhibition compared with doxapram (TASK-1 [8]): significantly stronger than inhibition by doxapram
